Test results from ChEMBL document CHEMBL5247641, “Discovery of Potent DYRK2 Inhibitors with High Selectivity, Great Solubility, and Excellent Safety Properties for the Treatment of Prostate Cancer” (J Med Chem, 2023).
One block for each molecule: values may come before it. Active and inactive are the calls of the source. The rule behind the calls is not given here.

Tests used:
[1] = molecular target: T1, Dual specificity tyrosine-phosphorylation-regulated kinase 2 (Homo sapiens, UniProt Q92630); assay: Inhibition of hexa His-tagged DYRK2 (72 to 479 residues) (unknown origin) expressed in Escherichia coli BL21 (DE3) assessed as substrate phosphorylation using 4E-BP1 as substrate in presence of [gamma33-P]ATP incubated for 2 hrs by scintillation counter analysis
T1 sequence (Q92630 whole entry): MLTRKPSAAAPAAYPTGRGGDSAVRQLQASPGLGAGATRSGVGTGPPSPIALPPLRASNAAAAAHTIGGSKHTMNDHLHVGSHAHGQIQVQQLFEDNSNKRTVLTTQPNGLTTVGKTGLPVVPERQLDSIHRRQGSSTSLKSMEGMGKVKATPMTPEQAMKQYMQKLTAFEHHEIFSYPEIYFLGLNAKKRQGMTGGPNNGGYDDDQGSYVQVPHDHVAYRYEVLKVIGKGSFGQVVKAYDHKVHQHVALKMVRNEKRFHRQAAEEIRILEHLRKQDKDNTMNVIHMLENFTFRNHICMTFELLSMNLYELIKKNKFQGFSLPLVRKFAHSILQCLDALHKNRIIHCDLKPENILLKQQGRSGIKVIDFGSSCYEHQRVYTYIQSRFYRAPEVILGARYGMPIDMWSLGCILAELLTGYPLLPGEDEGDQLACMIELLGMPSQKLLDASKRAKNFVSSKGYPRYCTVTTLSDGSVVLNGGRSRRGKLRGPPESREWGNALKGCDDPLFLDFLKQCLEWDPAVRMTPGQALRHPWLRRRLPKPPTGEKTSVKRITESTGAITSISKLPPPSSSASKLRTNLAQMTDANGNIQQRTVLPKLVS

[2] = system: DU-145; assay: Induction of apoptosis in human DU-145 cells assessed as apoptotis rate at 40 uM incubated for 24 hrs by Annexin V-FITC and PI staining based flow cytometry (Rvb= 4.36%); assay type: functional
[3] = system: DU-145; assay: Induction of cell cycle arrest in human DU-145 cells assessed as accumulation of cells at G2 phase at 40 uM incubated for 24 hrs by propidium iodide based flow cytometric analysis (Rvb= 17.52%); assay type: functional
[4] = system: CWR22R; assay: Induction of apoptosis in human 22Rv1 cells assessed as apoptotis rate at 40 uM incubated for 24 hrs by Annexin V-FITC and PI staining based flow cytometry (Rvb= 3.08%); assay type: functional
[5] = system: DU-145; assay: Induction of cell cycle arrest in human DU-145 cells assessed as accumulation of cells at S phase at 40 uM incubated for 24 hrs by propidium iodide based flow cytometric analysis (Rvb= 29.02%); assay type: functional
[6] = system: DU-145; assay: Induction of cell cycle arrest in human DU-145 cells assessed as accumulation of cells at G1 phase at 40 uM incubated for 24 hrs by propidium iodide based flow cytometric analysis (Rvb= 53.46%); assay type: functional
[7] = system: CWR22R; assay: Induction of cell cycle arrest in human 22Rv1 cells assessed as accumulation of cells at G1 phase at 40 uM incubated for 24 hrs by propidium iodide based flow cytometric analysis (Rvb= 55.28%); assay type: functional
[8] = system: CWR22R; assay: Induction of cell cycle arrest in human 22Rv1 cells assessed as accumulation of cells at G2 phase at 40 uM incubated for 24 hrs by propidium iodide based flow cytometric analysis (Rvb=24.21 %); assay type: functional
[9] = system: DU-145; assay: Antitumor activity against human DU-145 xenografted in BALB/c nude mouse assessed as tumor growth inhibition at 100 mg/kg,po qd for 21 days; assay type: functional, organism-based; conditions: time 21.0 day
[10] = system: CWR22R; assay: Induction of cell cycle arrest in human 22Rv1 cells assessed as accumulation of cells at S phase at 40 uM incubated for 24 hrs by propidium iodide based flow cytometric analysis (Rvb=20.51 %); assay type: functional
[11] = molecular target: T1, Dual specificity tyrosine-phosphorylation-regulated kinase 2; assay: Inhibition of human GST-tagged DYRK2 expressed in Escherichia coli BL21 (DE3) using woodtide as substrate in presence of [gamma33-P]ATP incubated for 30 mins by Scintillation counter analysis

Compound: O=C(c1ccc(Nc2ncc(F)c(-c3ccc4scnc4c3)n2)nc1)N1CCN(C(=O)C2CC2)CC1
IC50 [1]: 33 nM

Compound: Cc1cnc(Nc2ccc(CN3CCN(C(=O)OC(C)(C)C)CC3)cn2)nc1-c1ccc2scnc2c1
IC50 [1]: > 10000 nM

Compound: CNC(=O)c1ccc(N2C(=S)N(c3ccc(C#N)c(C(F)(F)F)c3)C(=O)C2(C)C)cc1F [ENZALUTAMIDE]
Activity [2]: 8.01%
Activity [3]: 16.78%
Activity [4]: 5.85%
Activity [5]: 26.54%
Activity [6]: 56.68%
Activity [7]: 62.89%
Activity [8]: 21.43%
Activity [9]: Active
Activity [10]: 15.68%

Compound: CC(C)(C)OC(=O)N1CCN(Cc2ccc(Nc3ncc(F)c(-c4ccc5scnc5c4)n3)nc2)CC1
IC50 [1]: > 10000 nM

Compound: COc1cnc(Nc2ccc(CN3CCN(C(=O)OC(C)(C)C)CC3)cn2)nc1-c1ccc2scnc2c1
IC50 [1]: > 10000 nM

Next, values leading:

IC50 [1]: > 10000 nM
Compound: CC(C)(C)OC(=O)N1CCN(Cc2ccc(Nc3nccc(-c4ccc5scnc5c4)n3)nc2)CC1

IC50 [1]: 16 nM
Compound: CC(C)(C)OC(=O)N1CCN(C(=O)c2ccc(Nc3ncc(F)c(-c4ccc5scnc5c4)n3)cn2)CC1

IC50 [11]: 2.5 nM
Compound: COc1cc(/C=C/C(=O)CC(=O)/C=C/c2ccc(O)c(OC)c2)ccc1O [CURCUMIN]
